Data from paper PMC11740726 (PNAS Nexus, 2025).
Read-outs that look alike come from different tables or passages of the source.

How the values were obtained:
[1] = in vitro; conditions: African green monkey
[2] = system: SARS-CoV-2^WK-521; assay: microbe, parasite or virus in culture; format: cell-based
[3] = system: VeroE6 cells
[4] = system: SARS-CoV-2^XBB1.5; design: species or system B6.Cg-Tg(K18-hACE2)2-Prlmn/J-transgenic mice; conditions: mouse, in vivo
[5] = system: human calpain; format: biochemical
[6] = system: primary human nasal epithelial cells
[7] = in vivo; conditions: ICR, mouse, po, 10 mg/kg
[8] = system: HeLa^hACE2-TMPRSS2 cells
[9] = in vivo; conditions: PXB (human liver-chimeric), mouse, po, 10 mg/kg
[10] = system: SARS-CoV-2^BQ.1.1; assay: microbe, parasite or virus in culture; format: cell-based; conditions: Severe acute respiratory syndrome coronavirus 2, read-out: SARS-CoV-2^BQ.1.1 in HeLa^hACE2-TMPRSS2 cells EC50
[11] = system: SARS-CoV-2^Omicron EG.5.1; assay: microbe, parasite or virus in culture; format: cell-based; conditions: Severe acute respiratory syndrome coronavirus 2, read-out: anti-SARS-CoV-2^Omicron EG.5.1 activity EC50 in primary human nasal epithelial (HNEp) cells
[12] = system: four Salmonella typhimurium strains (TA100, TA1535, TA98, TA1537) and one Escherichia coli strain (WP2 uvrA)
[13] = biological target: human cathepsin L (Homo sapiens, UniProt P07711); assay: biochemical
human cathepsin L, sequence (P07711 114-333): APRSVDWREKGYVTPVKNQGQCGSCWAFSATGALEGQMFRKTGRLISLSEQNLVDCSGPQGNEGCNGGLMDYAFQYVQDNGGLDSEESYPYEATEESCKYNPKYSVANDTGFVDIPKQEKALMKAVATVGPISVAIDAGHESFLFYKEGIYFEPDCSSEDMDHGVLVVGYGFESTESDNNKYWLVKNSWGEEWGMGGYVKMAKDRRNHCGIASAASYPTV

[14] = system: SARS-CoV-2^WK-521; assay: microbe, parasite or virus in culture; format: cell-based; conditions: Severe acute respiratory syndrome coronavirus 2, read-out: EC50, SARS-CoV-2^WK-521, HeLa^hACE2-TMPRSS2
[15] = system: SARS-CoV-2 Omicron XBB.1.5; assay: microbe, parasite or virus in culture; format: cell-based; conditions: for EC50: Severe acute respiratory syndrome coronavirus 2, read-out: EC50 in the presence of 1 mg/mL human AAG
[16] = system: TA98; conditions: Salmonella typhimurium
[17] = system: WP2 uvrA; conditions: Escherichia coli
[18] = system: TA100; conditions: Salmonella typhimurium
[19] = biological target: SARS-CoV-2 M^pro (Severe acute respiratory syndrome coronavirus 2, UniProt P0DTD1); assay: SARS-CoV-2 M^pro enzyme assay (cell-free, fluorogenic substrate); format: biochemical; conditions: authentic M^pro; mean ± 1 SD, three assays
[20] = system: TA1535
[21] = system: TA1537; conditions: Salmonella typhimurium
[22] = Severe acute respiratory syndrome coronavirus 2, Vero C1008, read-out: EC50, SARS-CoV-2^WK-521, VeroE6 +2μM CP-100356
[23] = Severe acute respiratory syndrome coronavirus 2, Vero C1008, read-out: SARS-CoV-2^WK-521 in VeroE6 cells EC50
[24] = read-out: EC50 against SARS-CoV-2^WK-521 in VeroE6 cells in the presence of CP100356
[25] = Severe acute respiratory syndrome coronavirus 2, Vero C1008, read-out: EC50, SARS-CoV-2^WK-521, VeroE6

In the case of `Cn1cnc(Cn2c(=O)[nH]/c(=N\c3cc4cn(C)nc4cc3Cl)n(Cc3cc(F)c(F)cc3F)c2=O)n1` [Ensitrelvir, reference compound], the CC50 [1] is reported as > 100000 nM and the EC50 [2, 22] is reported as 30 nM.

With `CC(C)(C)[C@H](NC(=O)C(F)(F)F)C(=O)N1C[C@H]2[C@@H]([C@H]1C(=O)N[C@@H](C[C@@H]1CCNC1=O)C(=O)c1nc3c(F)cccc3s1)C2(C)C` [TKB245] the “intracellular concentrations in VeroE6 cells” value [3] was “higher than those of nirmatrelvir”, the CC50 [1] was > 100000 nM and the EC50 [2, 23] was 20 ± 7 nM. For the same molecule, the EC50 [2, 24] was 3.5 nM.

In the case of `CC(C)(C)[C@H](NC(=O)C(F)(F)F)C(=O)N1C[C@H]2[C@@H]([C@H]1C(=O)N[C@@H](C[C@@H]1CCNC1=O)C(=O)c1nc3cc(F)ccc3s1)C2(C)C` [TKB272], the “Lungs Virus titer” value [4] is reported as 5.1 Log10(PFU/g), the “Nasal turbinates Virus titer” value [4] is reported as 3.2 Log10(PFU/g) and the IC50 [5] is reported as > 2000 nM. The “inhibition of human calpain (target specificity)” value [5] was “none of the human cysteine enzymes, cathepsin L or calpain, were appreciably inhibited”, the “intracellular concentrations in human primary nasal epithelial cells” value [6] was “comparable to nirmatrelvir” and the half-life [7] was 3.37 h. The “intracellular concentrations in HeLa^hACE2-TMPRSS2 cells” value [8] was “greater than those of nirmatrelvir”, the half-life [9] was 3.12 h and the EC50 [10] was 2.6 ± 1 nM. The EC50 [11] was 31 nM, the “intracellular concentrations in VeroE6 cells” value [3] was “higher than those of nirmatrelvir” and the “genotoxicity in the micro-Ames test” value [12] was “no apparent genotoxicity”. The “growth inhibition of bacterial strains in µAmes test” value [12] was “did not inhibit the growth of bacterial strains employed”, the “increase of revertant colonies compared with negative control in µAmes test” value [12] was “did not increase the number of revertant colonies more than twice” and the IC50 [13] was > 16000 nM. The “inhibition of human cathepsin L (target specificity)” value [13] was “none of the human cysteine enzymes, cathepsin L or calpain, were appreciably inhibited”, the CC50 [1] was 98000 ± 2100 nM and the EC50 [2, 25] was 15.8 ± 8.9 nM. The EC50 [2, 22] was 1 ± 1 nM, the EC50 [2, 23] was 7 ± 1 nM and the EC50 [2, 24] was 0.4 nM. The EC50 [14] was 2.9 nM, the “effect of 5 mg/mL human AAG on antiviral activity” value [15] was “further reduced the activity” and the EC50 [15] was 30 nM.

With `NC(=O)C(=Cc1ccc([N+](=O)[O-])o1)c1ccco1` [AF-2, 2-(2-Furyl)-3-(5-nitro-2-furyl)acrylamide] the “Number of colonies / plate (positive control)” value (shortened to “Number of colonies / plate”) [16] was 22.7 ± 3.1 colonies / plate, the “Number of colonies / plate” value [17] was 10.7± 3.1 colonies / plate and the “Number of colonies / plate” value [18] was 29.0 ± 4. colonies / plate.

With `CC(C)(C)[C@H](NC(=O)C(F)(F)F)C(=O)N1C[C@H]2[C@@H]([C@H]1C(=O)N[C@@H](C[C@@H]1CCNC1=O)C(=O)c1nc3cccc(F)c3s1)C2(C)C` [TKB252] the EC50 [10] was 57 ± 23 nM, the CC50 at 3 days [1] was > 100000 nM and the EC50 [2, 23] was 62 ± 26 nM. It also gave an IC50 [19] of 200 ± 50 nM.

With `[N-]=[N+]=[N-].[Na+]` [NaN3, SodiumAzide] the “Number of colonies / plate” value [20] was 29.3 ± 9.1 colonies / plate.

With Nirmatrelvir + Ritonavir the “Lungs Virus titer” value [4] was 5.2 Log10(PFU/g) and the “Nasal turbinates Virus titer” value [4] was 2.4 Log10(PFU/g).

For `CC(C)(C)[C@H](NC(=O)C(F)(F)F)C(=O)N1C[C@H]2[C@@H]([C@H]1C(=O)N[C@@H](C[C@@H]1CCNC1=O)C(=O)c1nc3ccc(F)cc3s1)C2(C)C` [TKB273], the EC50 [10] was 114 ± 93 nM, the CC50 at 3 days [1] was > 100000 nM and the EC50 [2, 23] was 43 ± 24 nM. The IC50 [19] was 8.9 ± 4.1 nM.

With `COc1ccc2nc3cc(Cl)ccc3c(NCCCNCCCl)c2c1` [ICR-191, 2-Methoxy-6-chloro-9-[3-(2-chloroethyl)-aminopropylamino] acridine·2HCl] the “Number of colonies / plate” value [21] was 37.3± 2.5 colonies / plate.

`CC(C)(C)[C@H](NC(=O)C(F)(F)F)C(=O)N1C[C@H]2[C@@H]([C@H]1C(=O)N[C@H](C#N)C[C@@H]1CCNC1=O)C2(C)C` [Nirmatrelvir, reference compound] showed a half-life [9] of 1.43 h, an EC50 [10] of 51 ± 16 nM and an EC50 [11] of 11100 nM. For the same molecule, the CC50 [1] was > 100000 nM, the EC50 [2, 25] was 1140 ± 190 nM and the EC50 [2, 22] was 20 ± 10 nM. The EC50 [2, 23] was 770 ± 180 nM, the EC50 [2, 24] was 36.3 nM and the EC50 [14] was 20 nM. For the same molecule, the “effect of 5 mg/mL human AAG on antiviral activity” value [15] was “further reduced the activity” and the EC50 [15] was 160 nM.

With `CC(C)C(=O)OC[C@H]1O[C@@H](n2ccc(NO)nc2=O)[C@H](O)[C@@H]1O` [molnupiravir, reference compound] the EC50 [2, 22] was 840 nM.

With `Nc1ccc2cc3ccccc3cc2c1` [Compound 2AA, 2-Aminoanthracene] the “Number of colonies / plate” value ([20]; Salmonella typhimurium) was 15.3 ± 1.2 colonies / plate and the “Number of colonies / plate” value [17] was 49.0± 7.9 colonies / plate.
